{"source": "patent US6428972B2", "about": "“Biochemical method to measure niacin status in a biological sample” (Niadyne, Inc., priority 1998, dated 2002)", "test_system": "NAD and NADP in whole blood", "details": "hypercholesterolemia subjects, 750 mg of niacin twice daily for two months", "note": "“And” between values parts separate entries of the source, which are not always exact repeats. Equal values may be shown once.", "from_the_text": "The term niacin number has been chosen as a convenient way to represent niacin status and is defined as the ratio of the concentration of NAD to the concentration of NADP multiplied by 100 (100·[NAD]/[NADP]) in whole blood. For example, if the relative concentration of NADP([NADP]) is 1 and the relative concentration of NAD([NAD]) is 0.72, the niacin number would be 72 (from the formula 100·[NAD]/[NADP]=72 wherein [NAD] is 0.72 and [NADP] is 1). Expressing the values in this way yields a whole number that is linearly related to intracellular NAD content of red blood cells.", "data": [{"smiles": "O=C(O)c1cccnc1", "note": "[niacin, pyridine 3-carboxylic acid]", "values": [{"measurement": "Mean niacin number", "setting": "pretherapy mean 175", "value": "665 and 665 ± 115"}, {"measurement": "Range observed (niacin number)", "setting": "pretherapy range 131-242", "value": "517-746"}]}]}
